# According to patent publication US20040076974A1, “Liver necrosis predictive genes” (priority 2002, published 2004):
# Several values for one entry are separate records, joined by “and”; a condition that tells them apart may be missing. Equal values may be shown once. Read-outs that look alike come from different tables or passages of the source.
# Columns and labels:
# [1] = tested on: toxicologically relevant rat genes (rat CT array)
# Sprague Dawley rats = settings: rat
# Summary of the method: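 Toxicity calls (necrosis present or absent at 72 h) and histopathology scores were correlated with tissue gene expression from Crl:CD Sprague Dawley rats. Animals, usually 3 treated with compound by i.p. route and 3 given vehicle, were killed at 6, 24 or 72 h and tissues frozen immediately in liquid nitrogen.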
# [2] = 24 h, dose 20, ratio treatment/control
# [3] = 24 h, dose 20, ratio treatment/control, listed as PHEN
structure (smiles),measurement,setting,value
C[C@@H]1C[C@H]2[C@@H]3CCC4=CC(=O)C=C[C@]4(C)[C@@]3(F)[C@@H](O)C[C@]2(C)[C@@]1(O)C(=O)CO [dexamethasone],60S ribosomal protein L6 expression,"[1]; rat, in vivo",0.8901 and 1.098 (2×) and 0.9353
same,Adenine nucleotide translocator 1 expression,"[1]; rat, in vivo",0.9053 and 1.087 and 0.9653 and 0.9797
same,"Alpha-2-macroglobulin, sequence 2 expression","[1]; rat, in vivo",0.8488 and 1.069 and 0.9789 and 0.9595
same,Alpha-2-microglobulin expression,"[1]; rat, in vivo",0.9657 and 0.9413
same,Alpha-tubulin expression,"[1]; rat, in vivo",0.8272 and 1.251 and 0.9313 and 1.093
same,Apolipoprotein All expression,"[1]; rat, in vivo",0.7858 and 0.4198 and 0.803 and 0.4911
same,"Beta-tubulin, class I expression","[1]; rat, in vivo",0.8776 and 1.559 and 0.9809 and 1.151
same,Calpactin I heavy chain expression,"[1]; rat, in vivo",1.271 and 1.029
same,Cofilin expression,"[1]; rat, in vivo",1.006 and 0.9999
same,Collagen type II expression,"[1]; rat, in vivo",0.9739 and 1.08 and 1.31
same,Cystatin C expression,"[1]; rat, in vivo",0.8226 and 0.8364 and 1.078
same,Cytochrome P450 2C11 expression,"[1]; rat, in vivo",1.275
same,Dynamin-1 (D100) expression,"[1]; rat, in vivo",1.017 and 1.094 and 0.908 and 0.9644
same,Elongation factor-1 alpha expression,"[1]; rat, in vivo",0.8912 and 1.18 and 1.019
same,F1-ATPase beta subunit expression,"[1]; rat, in vivo",0.9797 and 1.576 and 1.032 and 1.236
same,"Gamma-actin, cytoplasmic expression","[1]; rat, in vivo",0.9178 and 0.883 and 0.9507
same,Glutathione S-transferase theta-1 expression,"[1]; rat, in vivo",0.9901 and 0.9291 and 0.9991 and 0.8886
same,Glycine methyltransferase expression,"[1]; rat, in vivo",1.124 and 1.982 and 1.013 and 1.714
same,Heme oxygenase expression,"[1]; rat, in vivo",0.8094 and 0.8311 and 0.7467
same,High affinity IgE receptor gamma chain (FcERIgamma) expression,"[1]; rat, in vivo",0.9808 and 0.8055 and 0.8812 and 0.8054
same,IgE binding protein expression,"[1]; rat, in vivo",1.039 and 0.992 and 1.096
same,"Insulin-like growth factor I, exon 6 expression","[1]; rat, in vivo",0.8498 and 0.631 and 1.058 and 0.6827
same,Melanoma-associated antigen ME491 expression,"[1]; rat, in vivo",1.042 and 1.057 and 0.9592 and 0.993
same,"NADP-dependent isocitrate dehydrogenase, cytosolic expression","[1]; rat, in vivo",0.9222 and 0.7332 and 0.8853 and 0.7428
same,NIPK expression,"[1]; rat, in vivo",0.9259 and 0.8897 and 0.7728
same,Osteoactivin expression,"[1]; rat, in vivo",0.8926 and 1.029 and 0.8681
same,Phase-1 RCT-39 expression,"[1]; rat, in vivo",0.9168
same,Phase-1 RCT-57 expression,"[1]; rat, in vivo",0.9696
same,Phase-1 RCT-78 expression,"[1]; rat, in vivo",0.8839
same,Phase-1 RCT-81 expression,"[1]; rat, in vivo",0.9341
same,Phase-1 RCT-107 expression,"[1]; rat, in vivo",1.099 and 1.846 and 1.664
same,Phase-1 RCT-138 expression,"[1]; rat, in vivo",0.9192 and 0.9399 and 0.9819
same,Phase-1 RCT-146 expression,"[1]; rat, in vivo",0.9664
same,Phase-1 RCT-149 expression,"[1]; rat, in vivo",0.7735
same,Phase-1 RCT-164 expression,"[1]; rat, in vivo",0.8597 and 0.7256 and 0.7203
same,Phase-1 RCT-179 expression,"[1]; rat, in vivo",0.9599 and 0.8496
same,Phase-1 RCT-192 expression,"[1]; rat, in vivo",0.9855
same,Phase-1 RCT-295 expression,"[1]; rat, in vivo",0.9503
same,Stathmin expression,"[1]; rat, in vivo",1.058 and 1.063
same,Uncoupling protein 2 expression,"[1]; rat, in vivo",0.8754 and 1.097 and 0.9302
same,"alpha-1,2-fucosyltrans-ferase expression","[1]; rat, in vivo",0.8942 and 0.8707 and 0.7596
same,Score (histopathology liver necrosis severity score),"Sprague Dawley rats; Sprague Dawley, in vivo, ip, 8 mg/kg, 72 h",1
same,Score (histopathology liver necrosis severity score),"Sprague Dawley rats; Sprague Dawley, in vivo, ip, 30 mg/kg, 72 h",1
same,Liver Toxicity Necrosis Classification,Sprague Dawley rats; in vivo,no
same,Liver Necrosis,"Sprague Dawley rats; in vivo, ip, 8 mg/kg",no
same,Liver Necrosis,"Sprague Dawley rats; in vivo, ip, 30 mg/kg",no
NNc1ccccc1 [phenylhydrazine],Aflatoxin B1 aldehyde reductase,[1]; 24 h,0.6558 and 0.8284
same,Bax (alpha),[1]; [2],1.114
same,Proliferating cell nuclear antigen gene,[1]; [2],0.9203
same,3-hydroxyisobutyrate dehydrogenase,[1]; [3],0.9143 and 0.9803
same,14-3-3 zeta,[1]; [3],1.282 and 1.371
same,60S ribosomal protein L6,[1]; [3],0.8081 and 0.8097
same,ATPase inhibitor (rat mitochondrial IF1 protein),[1]; [3],0.5186 and 0.4781
same,Alpha 1 - inhibitor III,[1]; [3],0.5075 and 0.4307
same,Alpha-2-macroglobulin,[1]; [3],0.5649 and 0.479
same,Bax (alpha),[1]; [3],1.115
same,Beta-actin,[1]; [3],1.318 and 1.347
same,Calpactin I heavy chain,[1]; [3],1.093 and 1.232
same,Carbamyl phosphate synthetase I,[1]; [3],0.8997 and 0.8454
same,Carbonic anhydrase III,[1]; [3],2.069 and 2.604
same,Carbonyl reductase,[1]; [3],1.013 and 1.035
same,"Cathepsin L, sequence 2",[1]; [3],1.124
same,Cofilin,[1]; [3],1.075 and 0.9686
same,Cyclin G,[1]; [3],1.06 and 1.18
same,DNA polymerase beta,[1]; [3],0.6488 and 0.5275
same,Dynamin-1 (D100),[1]; [3],0.9853 and 0.8394
same,"Endogenous retroviral sequence, 5′ and 3′ LTR",[1]; [3],1.197 and 1.103
same,Enolase alpha,[1]; [3],0.7101 and 0.7241
same,Epidermal growth factor,[1]; [3],0.7579 and 0.6975
same,Equilbrative nitrobenzylthioinosine-sensitive nucleoside transporter,[1]; [3],0.6046 and 0.5693
same,Extracellular-signal-regulated kinase 1,[1]; [3],1.377 and 1.805
same,Fas antigen,[1]; [3],1.2 and 1.204
same,Gadd45,[1]; [3],1.142 and 1.49
same,Gadd153,[1]; [3],1.087 and 1.085
same,"Gamma-actin, cytoplasmic",[1]; [3],0.7836 and 0.7811
same,Glucose-regulated protein 78,[1]; [3],0.8506 and 0.7386
same,Heme oxygenase,[1]; [3],1.498 and 1.908
same,Hepatic lipase,[1]; [3],0.5441 and 0.4993
same,ID-1,[1]; [3],1.157 and 1.321
same,IgE binding protein,[1]; [3],1.098 and 1.166
same,IkB-a,[1]; [3],0.8328 and 0.7684
same,Insulin-like growth factor I,[1]; [3],0.8551 and 0.7944
same,Insulin-like growth factor binding protein 1,[1]; [3],1.056 and 0.9665
same,Insulin-like growth factor binding protein 3,[1]; [3],0.8807 and 0.8119
same,Integrin beta1,[1]; [3],1.12
same,L-gulono-gamma-lactone oxidase,[1]; [3],1.301 and 1.543
same,Liver fatty acid binding protein,[1]; [3],0.6905 and 0.5494
same,MAP kinase kinase,[1]; [3],1.023 and 1.164
same,Macrophage inflammatory protein-2 alpha,[1]; [3],1.132 and 1.347
same,Matrin F/G,[1]; [3],1.071 and 0.9981
same,Matrix metalloproteinase-1,[1]; [3],1.581 and 1.897
same,Melanoma-associated antigen ME491,[1]; [3],0.9841
same,Monocyte chemotactic protein receptor (CCR2),[1]; [3],1.3 and 1.499
same,Multidrug resistant protein-2,[1]; [3],1.286 and 1.334
same,N-hydroxy-2-acetylaminofluorene sulfotransferase (ST1C1),[1]; [3],0.5527 and 0.5091
same,Nucleoside diphosphate kinase beta isoform,[1]; [3],1.1
same,Organic anion transporter 3,[1]; [3],1.058
same,Organic cation transporter 3,[1]; [3],0.9117 and 0.8387
same,Ornithine decarboxylase,[1]; [3],1.479 and 1.694
same,PAR interacting protein,[1]; [3],0.9791 and 0.9269
same,Phase-1 RCT 252,[1]; [3],0.7562
same,Phase-1 RCT-15,[1]; [3],3.553 and 2.982
same,Phase-1 RCT-39,[1]; [3],0.9896
same,Phase-1 RCT-49,[1]; [3],0.869 and 0.8084
same,Phase-1 RCT-50,[1]; [3],1.203
same,Phase-1 RCT-68,[1]; [3],1.203
same,Phase-1 RCT-78,[1]; [3],1.292
same,Phase-1 RCT-83,[1]; [3],0.5669 and 0.5525
same,Phase-1 RCT-88,[1]; [3],2.1
same,Phase-1 RCT-89,[1]; [3],0.8262
same,Phase-1 RCT-92,[1]; [3],2.107
same,Phase-1 RCT-102,[1]; [3],1.096
same,Phase-1 RCT-137,[1]; [3],0.4276 and 0.4239
same,Phase-1 RCT-144,[1]; [3],0.8929
same,Phase-1 RCT-152,[1]; [3],0.7359 and 0.7085
same,Phase-1 RCT-168,[1]; [3],0.7781
same,Phase-1 RCT-181,[1]; [3],1.504
same,Phase-1 RCT-182,[1]; [3],0.6963 and 0.8836
same,Phase-1 RCT-189,[1]; [3],0.7721 and 0.6053
same,Phase-1 RCT-191,[1]; [3],0.6314 and 0.7152
same,Phase-1 RCT-192,[1]; [3],0.9295
same,Phase-1 RCT-225,[1]; [3],1
same,Phase-1 RCT-264,[1]; [3],0.5562 and 0.6031
same,Phase-1 RCT-270,[1]; [3],0.728
same,Phase-1 RCT-271,[1]; [3],1.199
same,Phase-1 RCT-288,[1]; [3],0.8205 and 0.8069
same,Phase-1 RCT-295,[1]; [3],1.57
same,Proliferating cell nuclear antigen gene,[1]; [3],1.089
same,Ribosomal protein L13A,[1]; [3],1.024
same,Ribosomal protein S8,[1]; [3],0.7171 and 0.6731
same,Ribosomal protein S17,[1]; [3],0.7324 and 0.6158
same,Senescence marker protein-30,[1]; [3],0.7313 and 0.841
same,Sodium/bile acid cotransporter,[1]; [3],0.6926 and 0.7429
same,Superoxide dismutase Mn,[1]; [3],1.092 and 1.114
same,Thymosin beta-10,[1]; [3],0.7195 and 0.7559
same,Transthyretin,[1]; [3],0.4631 and 0.4873
same,Ubiquitin conjugating enzyme (RAD 6 homologue),[1]; [3],0.7763 and 0.6535
same,Uncoupling protein 2,[1]; [3],0.9638 and 0.9416
same,Zinc finger protein,[1]; [3],0.8961 and 0.8505
same,c-jun,[1]; [3],1.14 and 1.384
same,c-myc,[1]; [3],1.235 and 1.141
same,p53,[1]; [3],1.067 and 1.196
same,{Ribosomal protein L6},[1]; [3],1.368 and 1.181
same,Paraoxonase 1,"[1]; rat, in vivo",0.4982 and 0.4752
same,Liver Toxicity Necrosis Classification,Sprague Dawley rats; in vivo,no
same,Liver Necrosis,"Sprague Dawley rats; intraperitoneal, dose 20 mg/kg, 72 hours after treatment",no
same,Score (histopathology liver necrosis severity score),"Sprague Dawley rats; intraperitoneal, dose 20 mg/kg, 72 hours, 1 = not remarkable, 2 and higher increasing severity",1
same,Liver Necrosis,"Sprague Dawley rats; intraperitoneal, dose 80 mg/kg, 72 hours after treatment",no
same,Score (histopathology liver necrosis severity score),"Sprague Dawley rats; intraperitoneal, dose 80 mg/kg, 72 hours, 1 = not remarkable, 2 and higher increasing severity",1
